Results on 20 compounds are retold here after PubChem BioAssay AID256 (DTP/NCI, 2004).

Molecules are shown by their SMILES. Values joined by “and” are separate entries in the source; they are usually repeats but may differ in a detail not shown here. Identical values can stand only once. Toxic doses and inconclusive results are not listed.

The assay relates to CD2F1 mice, L1210 leukemia ip, survival T/C. Kind of assay: NCI In Vivo Anticancer Drug Screen. Data for tumor model L1210 Leukemia (intraperitoneal) in CD2F1 (CDF1) mice. The conditions noted are these: higher = longer survival. The gist of the method:
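Implant tumor; dose compound or vehicle; measure endpoint in both groups; report treated divided by control.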

Where [1] appears, read: endpoint: mean survival time, dose: 100.0 mg/kg/injection, schedule: Q04DX003 (ip), vehicle: saline.
Setting [2] is: endpoint: mean survival time, dose: 200.0 mg/kg/injection, schedule: Q04DX003 (ip), vehicle: saline.
Setting [3] is: endpoint: mean survival time, dose: 12.5 mg/kg/injection, schedule: Q01DX009 (ip), vehicle: water.
The mark [4] stands for this setting: endpoint: mean survival time, dose: 25.0 mg/kg/injection, schedule: Q04DX002 (ip), vehicle: saline with Tween-80.
The mark [5] stands for this setting: endpoint: mean survival time, dose: 12.5 mg/kg/injection, schedule: Q01DX009 (ip), vehicle: saline with Tween-80.
The mark [6] stands for this setting: endpoint: mean survival time, dose: 25.0 mg/kg/injection, schedule: Q01DX009 (ip), vehicle: saline with Tween-80.
[7] abbreviates: endpoint: mean survival time, dose: 200.0 mg/kg/injection, schedule: Q01DX009 (ip), vehicle: saline with Tween-80.
Setting [8] is: endpoint: mean survival time, dose: 100.0 mg/kg/injection, schedule: Q04DX003 (ip), vehicle: saline with Tween-80.
Setting [9] is: endpoint: mean survival time, dose: 200.0 mg/kg/injection, schedule: Q04DX003 (ip), vehicle: saline with Tween-80.
Where [10] appears, read: endpoint: mean survival time, dose: 400.0 mg/kg/injection, schedule: Q04DX003 (ip), vehicle: saline with Tween-80.
Setting [11] is: endpoint: mean survival time, dose: 100.0 mg/kg/injection, schedule: Q01DX009 (ip), vehicle: saline with Tween-80.
Setting [12] is: endpoint: mean survival time, dose: 400.0 mg/kg/injection, schedule: Q01DX009 (ip), vehicle: saline with Tween-80.

In the case of `Cc1c[nH]c(=S)[nH]c1=O.[Pd]`, the T/C is 94 % of control (endpoint: mean survival time, dose: 3.12 mg/kg/injection, schedule: Q04DX003 (ip), vehicle: saline); 102 % of control (endpoint: mean survival time, dose: 6.25 mg/kg/injection, schedule: Q04DX003 (ip), vehicle: saline); 97 % of control (endpoint: mean survival time, dose: 12.5 mg/kg/injection, schedule: Q04DX003 (ip), vehicle: saline); 102 % of control (endpoint: mean survival time, dose: 25.0 mg/kg/injection, schedule: Q04DX003 (ip), vehicle: saline); 100 % of control (endpoint: mean survival time, dose: 50.0 mg/kg/injection, schedule: Q04DX003 (ip), vehicle: saline); 100 % of control under setting [1]. Besides, the T/C under setting [2] was 96 % of control.
`OC(c1cc2ccc(C(F)(F)F)cc2c2cc(C(F)(F)F)ccc12)C1CCCCN1` (configuration not stated): the T/C reads like this: (endpoint: mean survival time, dose: 9.4 mg/kg/injection, schedule: Q01DX009 (ip), vehicle: saline) 101 % of control; (endpoint: mean survival time, dose: 18.8 mg/kg/injection, schedule: Q01DX009 (ip), vehicle: saline) 102 % of control; (endpoint: mean survival time, dose: 37.5 mg/kg/injection, schedule: Q01DX009 (ip), vehicle: saline) 96 % of control.
As for `NC(N)=N/N=C\c1c2ccccc2cc2ccccc12`, the T/C is, setting by setting: (endpoint: mean survival time, dose: 0.78 mg/kg/injection, schedule: Q01DX009 (ip), vehicle: water) 100 % of control; (endpoint: mean survival time, dose: 1.56 mg/kg/injection, schedule: Q01DX009 (ip), vehicle: other) 101 % of control; (endpoint: mean survival time, dose: 1.56 mg/kg/injection, schedule: Q01DX009 (ip), vehicle: water) 101 % of control; (endpoint: mean survival time, dose: 3.13 mg/kg/injection, schedule: Q01DX009 (ip), vehicle: other) 100 % of control; (endpoint: mean survival time, dose: 3.13 mg/kg/injection, schedule: Q01DX009 (ip), vehicle: water) 116 % of control; (endpoint: mean survival time, dose: 6.25 mg/kg/injection, schedule: Q01DX009 (ip), vehicle: other) 106 % of control. Besides, the T/C reads like this: (endpoint: mean survival time, dose: 12.5 mg/kg/injection, schedule: Q01DX009 (ip), vehicle: other) 106 % of control; under setting [3], 105 % of control; (endpoint: mean survival time, dose: 25.0 mg/kg/injection, schedule: Q01DX009 (ip), vehicle: other) 111 % of control.
Regarding `CCOC(=O)CCC(NC(=O)c1ccc(NCc2cnc3nc(N)nc(N)c3c2)cc1)C(=O)OCC` (configuration not stated), the T/C reads like this: (endpoint: median survival time, dose: 1.0 mg/kg/injection, schedule: Q01DX005 (ip), vehicle: saline with Tween-80) 153 % of control; (endpoint: median survival time, dose: 2.0 mg/kg/injection, schedule: Q01DX005 (ip), vehicle: saline with Tween-80) 174 % of control.
As to `ClCc1c2ccccc2cc2ccccc12`, under setting [4], the T/C is 104 % of control.
As to `CCOC(=O)C1=C(C)NC(C)=C(C(=O)OCC)C1Cc1ccccc1`, the T/C was 106 % of control (endpoint: mean survival time, dose: 100.0 mg/kg/injection, schedule: Q01DX009 (ip), vehicle: other); 98 % of control (endpoint: mean survival time, dose: 200.0 mg/kg/injection, schedule: Q01DX009 (ip), vehicle: other); 104 % of control (endpoint: mean survival time, dose: 400.0 mg/kg/injection, schedule: Q01DX009 (ip), vehicle: other).
`CCOC(=O)C(=O)Nc1cc(C)ccc1C`: the T/C by setting is: (endpoint: mean survival time, dose: 6.25 mg/kg/injection, schedule: Q01DX009 (ip), vehicle: saline with Tween-80) 96 % of control; under setting [5], 95 % of control; under setting [6], 98 % of control.
As for `O=S(=O)(CCCl)c1ccc(Cl)cc1`, the T/C is 96 % of control (endpoint: mean survival time, dose: 100.0 mg/kg/injection, schedule: Q04DX002 (ip), vehicle: saline with Tween-80) and 101 % of control (endpoint: mean survival time, dose: 200.0 mg/kg/injection, schedule: Q04DX002 (ip), vehicle: saline with Tween-80).
As to `CCCN(CCC)S(=O)(=O)c1ccc(NC(=O)OC2CCC3(C)C(=CCC4C3CCC3(C)C(C(C)CCCC(C)C)CCC43)C2)cc1` (configuration not stated), the T/C was 105 % of control (endpoint: mean survival time, dose: 100.0 mg/kg/injection, schedule: Q01DX001 (sc), vehicle: steriod suspending solution); 97 % of control (endpoint: mean survival time, dose: 200.0 mg/kg/injection, schedule: Q01DX001 (sc), vehicle: steriod suspending solution); 101 % of control (endpoint: mean survival time, dose: 400.0 mg/kg/injection, schedule: Q01DX001 (sc), vehicle: steriod suspending solution).
Consider `COc1cc(-c2nc(-c3ccc(N=Cc4ccc(N(CCCOS(C)(=O)=O)CCCOS(C)(=O)=O)cc4)cc3)cs2)ccc1OCc1ccccc1`, for which the T/C is 91 % of control (endpoint: mean survival time, dose: 100.0 mg/kg/injection, schedule: Q01DX001 (ip), vehicle: saline with Tween-80); 95 % of control (endpoint: mean survival time, dose: 200.0 mg/kg/injection, schedule: Q01DX001 (ip), vehicle: saline with Tween-80); 86 % of control under setting [7]; 89 % of control (endpoint: mean survival time, dose: 400.0 mg/kg/injection, schedule: Q01DX001 (ip), vehicle: saline with Tween-80).
With `CC1(C)C(=O)OC(n2ccc(=O)[nH]c2=O)C1=O` (configuration not stated), the T/C reads like this: (endpoint: median survival time, dose: 12.5 mg/kg/injection, schedule: Q01DX005 (ip), vehicle: saline) 103 % of control; (endpoint: median survival time, dose: 25.0 mg/kg/injection, schedule: Q01DX005 (ip), vehicle: saline) 103 % of control; (endpoint: median survival time, dose: 50.0 mg/kg/injection, schedule: Q01DX005 (ip), vehicle: saline) 101 % of control; (endpoint: median survival time, dose: 100.0 mg/kg/injection, schedule: Q01DX005 (ip), vehicle: saline) 103 % of control; (endpoint: median survival time, dose: 200.0 mg/kg/injection, schedule: Q01DX005 (ip), vehicle: saline) 103 % of control.
Regarding `N=Cc1ccccc1`, the T/C is 99 % of control (endpoint: mean survival time, dose: 100.0 mg/kg/injection, schedule: Q01DX001 (ip), vehicle: Klucel (hydroxypropylcellulose) (HPC)); 96 % of control (endpoint: mean survival time, dose: 200.0 mg/kg/injection, schedule: Q01DX001 (ip), vehicle: Klucel (hydroxypropylcellulose) (HPC)); 105 % of control (endpoint: mean survival time, dose: 400.0 mg/kg/injection, schedule: Q01DX001 (ip), vehicle: Klucel (hydroxypropylcellulose) (HPC)).
Regarding `CC(CC=O)CCCC(C)(C)O` (configuration not stated), the T/C reads like this: under setting [8], 103 % of control; under setting [9], 95 % of control; under setting [10], 98 % of control.
In the case of `CNNCc1ccc(/C=N/NC(N)=S)cc1`, the T/C runs as follows: (endpoint: mean survival time, dose: 6.25 mg/kg/injection, schedule: Q01DX009 (ip), vehicle: water) 96 % of control; under setting [3], 98 % of control; (endpoint: mean survival time, dose: 25.0 mg/kg/injection, schedule: Q01DX009 (ip), vehicle: water) 100 % of control; (endpoint: mean survival time, dose: 50.0 mg/kg/injection, schedule: Q01DX009 (ip), vehicle: water) 86 % of control and 96 % of control; (endpoint: mean survival time, dose: 100.0 mg/kg/injection, schedule: Q01DX009 (ip), vehicle: water) 86 % of control and 96 % of control.
For `CC(C#N)(C#N)N=Nc1ccc(Cl)cc1Cl`, the T/C by setting is: under setting [5], 96 % of control and 102 % of control; under setting [6], 100 % of control and 104 % of control; (endpoint: mean survival time, dose: 50.0 mg/kg/injection, schedule: Q01DX009 (ip), vehicle: saline with Tween-80) 98 % of control and 107 % of control; under setting [11], 101 % of control and 107 % of control; under setting [7], 101 % of control and 111 % of control; under setting [12], 113 % of control and 102 % of control.
Turning to `CC1(C)N=C(N)N=C(N)N1c1cccc(CC(=O)Nc2ccc(S(=O)(=O)F)cc2)c1`, the T/C is, setting by setting: (endpoint: mean survival time, dose: 50.0 mg/kg/injection, schedule: Q01DX009 (ip), vehicle: saline) 120 % of control; (endpoint: mean survival time, dose: 100.0 mg/kg/injection, schedule: Q01DX009 (ip), vehicle: saline) 117 % of control; (endpoint: mean survival time, dose: 300.0 mg/kg/injection, schedule: Q01DX009 (ip), vehicle: saline) 120 % of control.
On to `CC(C)(Cl)[N+](=O)[O-]`, for which the T/C runs as follows: under setting [1], 98 % of control; under setting [2], 104 % of control; (endpoint: mean survival time, dose: 400.0 mg/kg/injection, schedule: Q04DX003 (ip), vehicle: saline) 96 % of control.
Consider `CC(=O)c1cccc2cccc([N+](=O)[O-])c12`, for which the T/C by setting is: under setting [11], 101 % of control; under setting [8], 102 % of control; under setting [7], 102 % of control; under setting [9], 102 % of control; under setting [12], 102 % of control; under setting [10], 100 % of control.
Turning to `N#[O+].O=[N+]([O-])O.[Co].[NH2-].[NH2-].[NH2-].[NH2-].[NH2-]`, the T/C by setting is: (endpoint: mean survival time, dose: 6.25 mg/kg/injection, schedule: Q04DX002 (ip), vehicle: saline with Tween-80) 95 % of control; (endpoint: mean survival time, dose: 12.5 mg/kg/injection, schedule: Q04DX002 (ip), vehicle: saline with Tween-80) 88 % of control; under setting [4], 98 % of control.
In the case of `COC(=O)CCC(=O)NCCc1c[nH]c2ccccc12`, the T/C by setting is: under setting [8], 98 % of control; under setting [9], 93 % of control; under setting [10], 98 % of control.
